{"source": "patent US11667630B2", "about": "“Nitrogen-containing 6-membered cyclic compound” (Asahi Kasei Pharma Corporation, priority 2017, dated 2023)", "key": {"[1]": {"tested_on": "dog lumbar vertebrae posterolateral fixation model", "assay": "Bone union-promoting action in dog lumbar vertebrae posterolateral fixation model", "assay_type": "in vivo", "settings": "twelve weeks after operation; for Continuity score based on soft X-ray image (Mean ± SD): grades 0 to 3 per Table 9; for Manual evaluation of bone union: beagle dogs, microspheres containing compound of Example 23 mixed with autologous bone graft, animals with union/5", "procedure": "In order to investigate a bone union-promoting action in the spinal fusion of the compounds of the present invention, influence of mixing of microspheres containing a test compound at the time of autologous bone grafting was confirmed by using a lumbar vertebrae posterolateral fixation model.\nTwelve to thirteen months old male beagle dogs ([…] LABES) were anesthetized by administration of a 1:1 mixture of ketamine hydrochloride (Ketalar 500 mg, Daiichi Sankyo Propharma Co., Ltd.) and xylazine (Selactar 2% Injection, Bayer Yakuhin, Ltd.) at a dose of about 0.5 mL/kg, and Japanese Pharmacopoeia-listed isoflurane (Elucaine, produced by Mylan Pharmaceutical) was inhaled with an inhaler IMPAC6 (VetEquip Inc.) to maintain the anesthesia. The animal was fixed in the prone position, hair of a wide area over the right and left spina iliaca posterior superiors, part around iliac crest, and lower back was shaved, and disinfection treatment was performed with povidone-iodine listed in Japanese Pharmacopoeia (Isodine solution for animals, 20 mg of povidone-iodine listed in Japanese Pharmacopoeia in 1 mL, Meiji Seika Pharma) and ethanol for disinfection (Wako Pure Chemical Industries). […] About 2 g each of the right and left iliums were extracted by using a rongeur and bone scissors, and astriction was performed. The collected ilium, from which the soft tissues were removed, was finely broken with bone scissors, and thereby made into chips of 1 mm size to obtain 2 g each of bone grafts for right and left. Then, the skin was dissected along the spinous processes of lower back with a scalpel, the left and right lumbodorsal fascias were dissected, and then the transverse processes of the fourth and fifth lumbar vertebrae were exposed while the multifidus muscle and longissimus muscle were separated and dissected between the fascias thereof. The soft tissues adhering to the transverse processes were removed, and then decortication of the cortical bone on the surface of the transverse processes was performed with an electric drill (OS-40MV2, Osada Electric Co., Ltd.) to prepare a bone graft bed. The bone graft (2 g) prepared above was sufficiently mixed with a microsphere suspension obtained by suspending microspheres containing a test compound (compound of Example 23) in an amount corresponding to 10, 30, or 100 μg of the test compound (prepared according to the method of Preparation Example 1) in 800 μL of a CMC solution, embedded and grafted on the transverse processes of the fourth and fifth lumbar vertebrae, and the bone graft bed between the transverse processes. After the autologous bone grafting, the lumbodorsal fascia, subcutaneous tissues, and skin were sutured, and the surgical site was disinfected. Twelve weeks after the operation, the animals were euthanized with overdose (30 mg/kg) of sodium pentobarbiturate (Somnopentyl, Kyoritsuseiyaku Corporation), and then the lumbar vertebrae were extracted. Bone union was judged by manually confirming movability of the fourth and fifth lumbar vertebrae (manual palpation) under blinding, and soft X-ray images were obtained from one direction by using Softex M-60 (Softex). The test was performed with the groups each consisting of 5 animals."}, "[2]": {"target": "T1, human EP3 receptor (Homo sapiens, UniProt P43115)", "T1 construct": "purchased Merck Millipore HTS092M", "T1 sequence (P43115 1-390)": "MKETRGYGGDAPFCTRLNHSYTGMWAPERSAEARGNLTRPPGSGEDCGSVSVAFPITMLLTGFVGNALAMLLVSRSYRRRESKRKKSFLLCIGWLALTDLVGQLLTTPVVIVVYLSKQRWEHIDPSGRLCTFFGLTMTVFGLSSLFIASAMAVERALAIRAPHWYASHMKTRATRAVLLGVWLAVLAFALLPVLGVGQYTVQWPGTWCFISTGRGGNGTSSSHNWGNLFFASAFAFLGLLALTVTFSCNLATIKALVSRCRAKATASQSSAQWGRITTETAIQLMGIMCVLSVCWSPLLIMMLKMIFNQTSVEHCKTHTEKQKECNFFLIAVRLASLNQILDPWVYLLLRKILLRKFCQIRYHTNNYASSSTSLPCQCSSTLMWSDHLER", "assay": "Receptor binding test, [3H]PGE2 binding inhibition, EP3", "settings": "[3H]PGE2 1.54 nmol/L, membrane fraction HTS092M, 25°C 60 minutes", "procedure": "In order to evaluate selectivity to each EP receptor subtype, [^3H]PGE2 binding-inhibition activities of test compounds for cell membranes on which human EP2, human EP3, and human EP4 receptors were stably expressed were measured.\nAs the membrane fractions of the prostaglandin E receptors EP2, EP3, and EP4, 10.0 μg protein/tube each of HTS185M, HTS092M, and HTS142M of Merck Millipore were used, respectively. Each membrane fraction was incubated with a reaction mixture (250 μL/tube) containing a test compound and [3H]PGE2 at 25° C. for 60 minutes. […] After the reaction, the membrane fraction was collected on filter paper by using a cell harvester, the filter paper was transferred to a measurement vial, and the measurement was performed on a liquid scintillation counter.\nThe nonspecific binding was determined as binding observed in the presence of excess amount (10 μM) of unlabeled PGE2. The measurement of the [3H]PGE2 binding-inhibiting activity of a test compound was performed by adding the test compound at various concentrations. The following buffers were used for the reaction.\nBuffer for EP3: 50 mmol/L Tris-HCl buffer containing 10 mmol/L MgCl2, and 1 mmol/L EDTA"}}}
{"compound": "O=C(O)c1ccc(CCN2C(=O)SCCN2CC[C@@H](O)Cc2cccc(C#Cc3ccsc3)c2)s1", "note": "[Example 23, (S)-5-(2-(4-(3-Hydroxy-4-(3-(thiophen-3-ylethynyl)phenyl)butyl)-2-oxo-1,3,4-thiadiazinan-3-yl)ethyl)thiophene-2-carboxylic acid]", "values": [{"measurement": "Continuity score based on soft X-ray image (Mean ± SD)", "setting": "[1]; 10 μg/site", "value": "2.4 ± 0.5"}, {"measurement": "Continuity score based on soft X-ray image (Mean ± SD)", "setting": "[1]; 30 μg/site", "value": "2.6 ± 0.5"}, {"measurement": "Continuity score based on soft X-ray image (Mean ± SD)", "setting": "[1]; 100 μg/site", "value": "2.8 ± 0.4"}, {"measurement": "Manual evaluation of bone union", "setting": "[1]; 10 μg/site", "value": "4/5"}, {"measurement": "Manual evaluation of bone union", "setting": "[1]; 30 μg/site", "value": "4/5"}, {"measurement": "Manual evaluation of bone union", "setting": "[1]; 100 μg/site", "value": "4/5"}, {"measurement": "IC50", "setting": "[2]", "value": "> 1000", "unit": "nM"}]}
